The target in one test is JAK-2 enzyme (Homo sapiens, UniProt O60674). As to the kind of experiment: JAK2 inhibition assay (radiometric 33P filter assay). It counts as biochemical. An outline of the steps:
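JAK-2 enzyme in 100 mM HEPES pH 7.4, 1 mM DTT, 10 mM MgCl2, 25 mM NaCl, 0.01% BSA, with final 12 μM [33P]ATP and 15 μM poly(Glu)4Tyr. Reactions ran 20 min at 25 °C and were stopped with TCA. 33P incorporation was counted after glass-fibre filtration.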

In a further test the target is T1, JAK3 (Homo sapiens, UniProt P52333).
T1 sequence (P52333 1-1124): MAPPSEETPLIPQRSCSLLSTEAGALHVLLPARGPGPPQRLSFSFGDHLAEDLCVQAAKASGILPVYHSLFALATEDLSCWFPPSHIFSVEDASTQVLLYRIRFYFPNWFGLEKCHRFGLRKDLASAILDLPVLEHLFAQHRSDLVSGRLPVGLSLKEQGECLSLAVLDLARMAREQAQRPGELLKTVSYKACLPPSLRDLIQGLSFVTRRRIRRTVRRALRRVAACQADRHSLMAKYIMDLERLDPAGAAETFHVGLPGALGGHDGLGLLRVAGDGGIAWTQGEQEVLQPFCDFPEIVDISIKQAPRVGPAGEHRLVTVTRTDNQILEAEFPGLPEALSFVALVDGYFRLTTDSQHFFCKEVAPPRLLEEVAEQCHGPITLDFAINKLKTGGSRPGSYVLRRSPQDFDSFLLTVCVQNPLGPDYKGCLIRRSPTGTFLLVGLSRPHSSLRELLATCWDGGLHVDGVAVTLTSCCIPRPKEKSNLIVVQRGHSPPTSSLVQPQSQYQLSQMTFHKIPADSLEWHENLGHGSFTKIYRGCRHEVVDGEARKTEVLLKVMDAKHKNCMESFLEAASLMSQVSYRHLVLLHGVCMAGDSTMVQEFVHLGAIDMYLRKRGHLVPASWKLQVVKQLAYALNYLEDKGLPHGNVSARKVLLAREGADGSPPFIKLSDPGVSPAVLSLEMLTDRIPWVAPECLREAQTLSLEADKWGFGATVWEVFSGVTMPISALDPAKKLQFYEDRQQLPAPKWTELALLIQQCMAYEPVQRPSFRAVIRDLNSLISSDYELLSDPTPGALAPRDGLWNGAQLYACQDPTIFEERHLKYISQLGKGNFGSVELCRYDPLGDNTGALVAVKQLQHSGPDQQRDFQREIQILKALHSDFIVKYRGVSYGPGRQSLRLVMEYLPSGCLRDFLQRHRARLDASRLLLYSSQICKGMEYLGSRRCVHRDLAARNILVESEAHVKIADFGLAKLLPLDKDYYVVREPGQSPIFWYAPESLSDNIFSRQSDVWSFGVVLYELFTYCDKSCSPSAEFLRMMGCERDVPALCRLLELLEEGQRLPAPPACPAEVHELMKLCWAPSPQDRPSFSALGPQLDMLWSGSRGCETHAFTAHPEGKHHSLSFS
As to the kind of experiment: JAK3 inhibition assay (radiometric 33P filter assay). It is filed as biochemical. An outline of the steps: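 Final conditions were 1 nM JAK3, 5 μM ATP (200 uCi/μmole) and 1 μM poly(Glu)4Tyr in 100 mM HEPES pH 7.4, 10 mM MgCl2, 25 mM NaCl, 1 mM DTT and 0.01% BSA. After 20 min at 25 °C the reaction was stopped with TCA. 33P incorporation was counted after glass-fibre filtration.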

The mark [1] stands for this setting: 15 μM poly(Glu)4Tyr, 12 μM ATP, read-out: JAK2 inhibition data (Ki).
[2] abbreviates: 1 μM poly(Glu)4Tyr, 5 μM ATP, 1 nM JAK3, 25° C., read-out: JAK3 inhibition data (Ki).

Structures are written as SMILES. pKi: −log10 of the molar value. Like-named read-outs stand apart in the source and are kept apart here.

Chain of JAK-2 enzyme (O60674 whole entry, species assumed): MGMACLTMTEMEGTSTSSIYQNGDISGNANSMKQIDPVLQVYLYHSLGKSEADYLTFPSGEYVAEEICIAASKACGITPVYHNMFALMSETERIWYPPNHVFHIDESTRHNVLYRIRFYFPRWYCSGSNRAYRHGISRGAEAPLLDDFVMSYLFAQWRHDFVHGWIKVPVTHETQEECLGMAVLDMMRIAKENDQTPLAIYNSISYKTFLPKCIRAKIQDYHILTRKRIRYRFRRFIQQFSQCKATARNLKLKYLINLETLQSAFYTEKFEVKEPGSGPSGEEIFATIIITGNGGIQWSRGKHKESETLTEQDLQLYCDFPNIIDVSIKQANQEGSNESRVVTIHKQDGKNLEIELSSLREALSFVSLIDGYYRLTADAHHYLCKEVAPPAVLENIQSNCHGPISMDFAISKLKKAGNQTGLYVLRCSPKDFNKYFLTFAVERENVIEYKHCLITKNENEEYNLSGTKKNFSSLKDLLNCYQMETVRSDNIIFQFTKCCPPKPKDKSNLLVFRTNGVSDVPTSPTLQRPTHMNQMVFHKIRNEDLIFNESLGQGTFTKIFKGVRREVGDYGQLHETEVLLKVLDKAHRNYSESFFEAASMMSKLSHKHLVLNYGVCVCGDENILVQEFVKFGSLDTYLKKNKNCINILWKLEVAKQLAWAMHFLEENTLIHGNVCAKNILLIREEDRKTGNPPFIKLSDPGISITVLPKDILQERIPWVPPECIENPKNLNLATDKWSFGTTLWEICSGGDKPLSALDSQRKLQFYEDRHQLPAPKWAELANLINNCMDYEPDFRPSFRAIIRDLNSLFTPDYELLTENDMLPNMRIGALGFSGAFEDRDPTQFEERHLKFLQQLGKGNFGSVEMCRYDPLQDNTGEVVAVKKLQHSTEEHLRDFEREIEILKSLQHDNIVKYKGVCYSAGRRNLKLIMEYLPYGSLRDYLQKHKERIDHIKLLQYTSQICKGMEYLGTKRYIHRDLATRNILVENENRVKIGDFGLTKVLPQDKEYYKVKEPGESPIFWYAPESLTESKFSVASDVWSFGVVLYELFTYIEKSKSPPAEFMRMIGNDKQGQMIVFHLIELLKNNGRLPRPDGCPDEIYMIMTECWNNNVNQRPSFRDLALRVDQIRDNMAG

For orientation: pKi means the Ki on a negative log10 scale, so that one unit is a factor of ten. Take `CC(=O)N1[C@H](C)CN(c2cc(-n3nc(Nc4ccc(N(C)C(=O)OC(C)C)cc4)nc3N)ncn2)C[C@@H]1C` [Compound 119]: the pKi on JAK-2 enzyme (setting [1]) and on JAK3 (setting [2]) was above 7.30 each time.

With `Nc1nc(Nc2ccc(N3CCOCC3)cc2)nn1-c1cc(N2CCNC(=O)CC2)ncn1` [Compound 3], the pKi on JAK-2 enzyme (setting [1]) and at JAK3 (setting [2]) was above 7.30 in each case.

For `CC(=O)N1[C@H](C)CN(c2cc(-n3nc(Nc4ccc(NC(=O)NC5CCCCC5)cc4)nc3N)ncn2)C[C@@H]1C` [Compound 71], the pKi at JAK-2 enzyme (setting [1]) and on JAK3 (setting [2]) was above 7.30 throughout.

Take `CC(=O)N1CCCN(c2cc(-n3nc(Nc4ccc(NC(=O)OC(C)(C)C)cc4)nc3N)ncn2)CC1` [Compound 21]: the pKi at JAK-2 enzyme (setting [1]) and on JAK3 (setting [2]) was above 7.30 each time.

For `COC(=O)N1CCCN(c2cc(-n3nc(Nc4ccc(N5CCOCC5)cc4)nc3N)ncn2)CC1` [Compound 8], the pKi on JAK-2 enzyme (setting [1]) and on JAK3 (setting [2]) was above 7.30 throughout.

With `CCOC(=O)N1CCN(c2ccc(Nc3nc(N)n(-c4cc(N5CCC6CCC(C5)N6C)ncn4)n3)cc2)CC1` (stereo not shown) [Compound 166], the pKi on JAK-2 enzyme (setting [1]) and on JAK3 (setting [2]) was above 7.30 in each case.

Consider `CC(=O)Nc1ccc(Nc2nc(N)n(-c3cc(N4CCCN(C(C)=O)CC4)ncn3)n2)cc1` [Compound 11], for which the pKi at JAK-2 enzyme (setting [1]) and on JAK3 (setting [2]) was above 7.30 in each case.

Take `CC(C)(C)OC(=O)N1CCN(c2ccc(Nc3nc(N)n(-c4cc(N5CCCN(C(=O)CC#N)CC5)ncn4)n3)cc2)CC1` [Compound 122]: the pKi on JAK-2 enzyme (setting [1]) and at JAK3 (setting [2]) was above 7.30 in each case.

As for `CC(=O)N1CCCN(c2cc(-n3nc(Nc4ccc(N5CCCCC5)cc4)nc3N)ncn2)CC1` [Compound 13], the pKi on JAK-2 enzyme (setting [1]) and on JAK3 (setting [2]) was above 7.30 in each case.

Turning to `CC(=O)N1CCCN(c2cc(-n3nc(Nc4ccc(NC(=O)OCC(C)(C)C)cc4)nc3N)ncn2)CC1` [Compound 95], the pKi at JAK-2 enzyme (setting [1]) and at JAK3 (setting [2]) was above 7.30 in each case.

Take `CC(=O)N1CCCN(c2cc(-n3nc(Nc4ccc(NC(=O)OCC(C)C)cc4)nc3N)ncn2)CC1` [Compound 94]: the pKi on JAK-2 enzyme (setting [1]) and on JAK3 (setting [2]) was above 7.30 each time.

Take `CC(=O)N1[C@H](C)CN(c2cc(-n3nc(Nc4ccc(NC(=O)OCC(C)(C)C)cc4)nc3N)ccn2)C[C@@H]1C` [Compound 104]: the pKi at JAK-2 enzyme (setting [1]) and on JAK3 (setting [2]) was above 7.30 throughout.

For `CCNC(=O)Nc1ccc(Nc2nc(N)n(-c3ccnc(N4C[C@@H](C)N(C(C)=O)[C@@H](C)C4)c3)n2)cc1` [Compound 105], the pKi at JAK-2 enzyme (setting [1]) and at JAK3 (setting [2]) was above 7.30 throughout.

Turning to `COc1ccc(OC(=O)N(C)c2ccc(Nc3nc(N)n(-c4cc(N5CCCN(C(C)=O)CC5)ncn4)n3)cc2)cc1` [Compound 135], the pKi at JAK-2 enzyme and at JAK3 was above 7.30 each time.

On to `CC(=O)N1[C@H](C)CN(c2cc(-n3nc(Nc4ccc(NC(=O)O[C@H]5C[C@H](C)CC[C@H]5C(C)C)cc4)nc3N)ncn2)C[C@@H]1C` [Compound 82], for which the pKi was above 7.30 on JAK-2 enzyme (setting [1]) and 6.30 to 7.30 at JAK3 (setting [2]).

Turning to `CCOC(=O)N1CCN(c2ccc(Nc3nc(N)n(-c4ccnc(N5CCCN(C(=O)OC(C)C)CC5)c4)n3)cc2)CC1` [Compound 151], the pKi on JAK-2 enzyme (setting [1]) and at JAK3 (setting [2]) was 6.30 to 7.30 each time.

In the case of `CC(=O)N1CCCN(c2cc(-n3nc(Nc4ccc(N5C[C@@H](C)O[C@@H](C)C5)cc4)nc3N)ncn2)CC1` [Compound 33], the pKi on JAK-2 enzyme (setting [1]) and at JAK3 (setting [2]) was above 7.30 throughout.

For the compound `CCOC(=O)N1CCN(c2ccc(Nc3nc(N)n(-c4cc(N5CCCN(C(C)=O)CC5)ncn4)n3)cc2)CC1` [Compound 46], the pKi at JAK-2 enzyme (setting [1]) and at JAK3 (setting [2]) was above 7.30 each time.

For `CC(=O)N1[C@H](C)CN(c2cc(-n3nc(Nc4ccc(N(C)C(=O)OC(C)(C)C)cc4)nc3N)ncn2)C[C@@H]1C` [Compound 114], the pKi at JAK-2 enzyme (setting [1]) and at JAK3 (setting [2]) was above 7.30 in each case.

On to `CC(=O)N1CCCN(c2cc(-n3nc(Nc4ccc(NC(=O)OCC(C)C)cc4)nc3N)ccn2)CC1` [Compound 175], for which the pKi on JAK-2 enzyme (setting [1]) and on JAK3 (setting [2]) was 6.30 to 7.30 each time.

On to `CC(=O)N1[C@H](C)CN(c2cc(-n3nc(Nc4ccc(NC(=O)NC(C)C)cc4)nc3N)ncn2)C[C@@H]1C` [Compound 69], for which the pKi at JAK-2 enzyme (setting [1]) and at JAK3 (setting [2]) was above 7.30 each time.

For the compound `CCOC(=O)N1CCN(c2ccc(Nc3nc(N)n(-c4ccnc(N5C[C@@H](C)N(C(C)=O)[C@@H](C)C5)c4)n3)cc2)CC1` [Compound 113], the pKi on JAK-2 enzyme (setting [1]) and on JAK3 (setting [2]) was above 7.30 throughout.

With `CCOC(=O)N1CCCN(c2cc(-n3nc(Nc4ccc(N5CCN(S(=O)(=O)CC)CC5)cc4)nc3N)ccn2)CC1` [Compound 153], the pKi at JAK-2 enzyme (setting [1]) and at JAK3 (setting [2]) was 6.30 to 7.30 in each case.

Regarding `CCOC(=O)Nc1ccc(Nc2nc(N)n(-c3cc(N4CCCN(C(=O)CC#N)CC4)ncn3)n2)cc1` [Compound 137], the pKi on JAK-2 enzyme (setting [1]) and at JAK3 (setting [2]) was above 7.30 each time.

Turning to `CC(=O)N1CCCN(c2cc(-n3nc(Nc4ccc(NC(=O)NC(C)C)cc4)nc3N)ncn2)CC1` [Compound 86], the pKi at JAK-2 enzyme (setting [1]) and on JAK3 (setting [2]) was above 7.30 in each case.

Regarding `CCOC(=O)CCNC(=O)Nc1ccc(Nc2nc(N)n(-c3cc(N4CCCN(C(C)=O)CC4)ncn3)n2)cc1` [Compound 89], the pKi on JAK-2 enzyme (setting [1]) and at JAK3 (setting [2]) was above 7.30 in each case.

Regarding `CC(=O)N1CCCN(c2cc(-n3nc(Nc4ccc(N5CCN(C(=O)C6CCC6)CC5)cc4)nc3N)ncn2)CC1` [Compound 40], the pKi on JAK-2 enzyme (setting [1]) and at JAK3 (setting [2]) was above 7.30 each time.

`CC(=O)N1[C@H](C)CN(c2cc(-n3nc(Nc4ccc(N5CCN(C(=O)OC(C)C)CC5)cc4)nc3N)ncn2)C[C@@H]1C` [Compound 56]: the pKi at JAK-2 enzyme (setting [1]) and at JAK3 (setting [2]) was above 7.30 each time.

Consider `CC(=O)N1CCCN(c2cc(-n3nc(Nc4ccc(N)cc4)nc3N)ncn2)CC1` [Compound 20], for which the pKi at JAK-2 enzyme (setting [1]) and at JAK3 (setting [2]) was above 7.30 throughout.

As to `CC(=O)N1[C@H](C)CN(c2cc(-n3nc(Nc4ccc(N5CCN(C(=O)NC(C)(C)C)CC5)cc4)nc3N)ncn2)C[C@@H]1C` [Compound 63], the pKi at JAK-2 enzyme (setting [1]) and on JAK3 (setting [2]) was above 7.30 in each case.

Consider `CCCS(=O)(=O)N1CCCN(c2cc(-n3nc(Nc4ccc(N5CCN(C(=O)OCC)CC5)cc4)nc3N)ncn2)CC1` [Compound 146], for which the pKi at JAK-2 enzyme (setting [1]) and on JAK3 (setting [2]) was 6.30 to 7.30 in each case.

As for `CCCOC(=O)N1CCN(c2ccc(Nc3nc(N)n(-c4ccnc(N5CCCN(C(=O)OC)CC5)c4)n3)cc2)CC1` [Compound 158], the pKi at JAK-2 enzyme (setting [1]) and at JAK3 (setting [2]) was 6.30 to 7.30 each time.

Regarding `CCCOC(=O)N1CCN(c2ccc(Nc3nc(N)n(-c4ccnc(N5CCCN(C(=O)CC#N)CC5)c4)n3)cc2)CC1` [Compound 140], the pKi at JAK-2 enzyme (setting [1]) and on JAK3 (setting [2]) was above 7.30 throughout.

Turning to `CC(=O)N1[C@H](C)CN(c2cc(-n3nc(Nc4ccc(N(C)C(=O)Oc5ccc(C)cc5)cc4)nc3N)ncn2)C[C@@H]1C` [Compound 121], the pKi on JAK-2 enzyme and on JAK3 was above 7.30 each time.

On to `CC(=O)N1CCCN(c2cc(-n3nc(Nc4ccc(N5CCN(C(=O)C(C)(C)C)CC5)cc4)nc3N)ncn2)CC1` [Compound 36], for which the pKi at JAK-2 enzyme (setting [1]) and on JAK3 (setting [2]) was above 7.30 each time.

As for `COC1CCCC(C(=O)Nc2ccc(Nc3nc(N)n(-c4cc(N5CCCN(C(C)=O)CC5)ncn4)n3)cc2)C1` (stereo not shown) [Compound 32], the negative logarithm of the Ki (pKi) at JAK-2 enzyme (setting [1]) and at JAK3 (setting [2]) was above 7.30 each time.

In the case of `CCCNC(=O)Nc1ccc(Nc2nc(N)n(-c3cc(N4C[C@@H](C)N(C(C)=O)[C@@H](C)C4)ncn3)n2)cc1` [Compound 68], the pKi on JAK-2 enzyme (setting [1]) and at JAK3 (setting [2]) was above 7.30 in each case.

For the compound `CC(=O)N1[C@H](C)CN(c2cc(-n3nc(Nc4ccc(NC(=O)Nc5c(F)cccc5F)cc4)nc3N)ncn2)C[C@@H]1C` [Compound 73], the pKi on JAK-2 enzyme (setting [1]) and at JAK3 (setting [2]) was above 7.30 throughout.

The values are drawn from patent US7329652B2, “Diaminotriazole compounds useful as protein kinase inhibitors” (Vertex Pharamaceuticals Incorporated, priority 2004, dated 2008).
